Measurements reported in paper PMC5848165 (Toxins, 2018).

Key:
[1] = system: formalin-induced paw licking response in mice; assay: Formalin-induced paw licking; assay type: in vivo, mouse (Kunming); details: 5 mg/kg i.p., n = 6
Description: Since Nav1.7 plays an important role in pain, the analgesic effects of JZTX-34 were examined in three animal models (formalin-induced paw licking, acetic acid-induced writhing, and hot plate). Intraplantar injection of formalin causes pain and can be divided into two phases. The early phase was neurogenic pain and usually occurred within […]), and the late phase was inflammatory pain lasting from 15 to 30 min).
(§1) Figure 6 Effects of JZTX-34 on pain. (A) Effects of JZTX-34 on the early phase (0–5 min) and late phase (15–30 min) of formalin-induced paw licking response in mice. (B) Effects of JZTX-34 on the acetic acid-induced writhing response in mice. (C)Effects of JZTX-34 on the hot plate test in mice.
(§2) The synthesized JZTX-34 was obtained according to the procedure as previously described. […] Rats (Sprague-Dawley) and Kunming mice were maintained in the Laboratory of Protein Chemistry of Hunan Normal University. All of the experimental involving animals were approved by the Animal Care and Use Committee of Hunan Normal University (2016-273, 13 October 2016).
Formalin test was performed according to the method described previously. […] After test samples were intraperitoneally (i.p.) injected, 5% formalin (20 μL) was injected to the plantar surface of right hind paw. The time spent licking the injected paw was counted every 5 min. Phase I was defined as 0–10 min, and Phase II defined as […].
(§3) Data from Axon 700B patch clamp were analyzed by Clampfit10.0 (Molecular Devices, Sunnyvale, CA, USA). Dose-response curves were fitted by the Hill logistic equation: y = 1 − (1 − fmax)/[…]. In this equation, n stands an empirical Hill coefficient and fmax is the fraction of current resistant to inhibition at high toxin (Tx) concentration. The G-V curves were obtained by calculating the conductance (G) at each voltage (V) using the equation G = I/(V1 − Vrev), with Vrev being the reversal potential determined for each cell individually. G-V curves were fitted using a Boltzmann equation—y = 1/(1 + exp[(Va − V)/κ])—in which Va, V, and κ represent midpoint voltage of kinetics, test potential, and slope factor, respectively. […] Statistical significance was calculated using Student’s t-test and was defined as p < 0.05.

hot plate test in mice = assay: Hot plate test; assay type: in vivo, mouse (Kunming); details: 5 mg/kg i.p., baseline about 10 s, n = 6
Description: as §1
Mice with a latency time about 10 s were selected for the hot plate test. […] After administration of test samples, the latency time was recorded at the time points of 30 min, 60 min, 120 min, and 180 min (Figure 6C). Negative control animals received the same volume of vehicle.
as §2
Mice were put on a hot plate apparatus (model HZ66-ZH-YLS-6B, Shanghai, China) in order to test response time to a thermal stimulus. The responses time of mice at about 10 s was selected for the test. […] Hind paw licking or jumping were regarded as a sign to avoid heat nociception.
as §3

[2] = system: inflammatory pain and neuropathic pain; details: cited from earlier work
Nav1.7 = details: cited from earlier work; for potency on Nav1.7 (literature): ref [14],[15]
Source text: Chronic pain is one of the most difficult clinical problems. As Nav1.7 is considered one of the most attractive targets for relieving chronic pain, scientist have paid a lot of effort to look for a selective inhibitor of Nav1.7. Several small molecules with selectivity on Nav1.7 are currently undergoing clinical development, including PF-05089771 (Pfizer, New York, NY, USA) and CNV1014802 (Convergence Pharmaceuticals, London , UK). Compared to small molecules, peptide toxins have better subtype selectivity due to their larger pharmacophore. Spider venoms are a rich source of ion ch ... || Many peptide toxins, which alter gating properties of VGSCs, have been identified to trap the DIIS3-S4 linker of sodium channels. However, the molecular mechanisms of inhibition of sodium currents by peptide toxins are greatly divergent. […] Pro ...

[3] = system: other sodium channel subtypes; details: literature statement, no reference given; cited from earlier work
[4] = system: C-fiber compound action potential; set-up: method as in PMID 28045073; details: desheathed cutaneous nerves; ref [27]; cited from earlier work

Compound | paw licking time, early phase ([1]; control 145.5 s) [s] | paw licking time, late phase ([1]; control 414.5 s) [s] | hot plate latency (hot plate test in mice; 30 min) | hot plate latency (hot plate test in mice; 60 min) [s] | relief of acute inflammatory and chronic neuropathic pain ([2]; ref [28]) | potency on Nav1.7 (literature) (Nav1.7) | effect on channel gating (HWTX-IV, literature) (Nav1.7; ref [25]) | activity on other sodium channel subtypes [3] | analgesic effect on severe pain ([2]; ref [27]) | C-fiber compound action potential [4] | effect on channel gating (ProTx-II, literature) (Nav1.7; ref [26])
CN1CC[C@]23c4c5ccc(O)c4O[C@H]2[C@@H](O)C=C[C@H]3[C@H]1C5 [morphine, reference compound] | 35.3 | 265 | 24.8 | 12.2 | – | – | – | – | – | – | –
HWTX-IV | – | – | – | – | efficiently eased the acute inflammatory pain and chronic neuropathic pain | very potent Nav1.7 blockers | without affecting activation or inactivation of channels | also show activity on other sodium channel subtypes | – | – | –
ProTx-II | – | – | – | – | – | very potent Nav1.7 blockers | – | also show activity on other sodium channel subtypes | exerted a strong analgesic effect on severe pain | completely blocked the C-fiber compound action potential | modified the voltage dependence of VGSC inactivation
